Reference: patent US9622495B2, “Methods to decontaminate cereal grains with chlorine dioxide” (Diversey, Inc., priority 2011, dated 2017)
Where “and” joins values, the source holds several entries; their conditions need not be identical. Equal entries are not always repeated.

Experiments:
Fusarium [1] = test: Industrial-scale treatment of barley with chlorine dioxide (about 10 ppm) in second steeping, Fusarium counts; type: cell-based; settings: in words
Description: Two independent comparison tests with batches of barley treated with chlorine dioxide in a second steeping, versus control steepings using tap water only, were carried out at industrial scale at an industrial malting site following the procedure described in Example 2. Each batch included about 56 m^3 of barley, the ratio of aqueous chlorine dioxide to barley was about 1:1, and chlorine dioxide (about 10 ppm) was added during second steeping. There was no further dosage of ClO2 during the subsequent germination phase. The effect on reduction of Fusarium counts at industrial-scale were determined at distinct phases: after a first air break, after the second steeping, and during the green malt stage (after barley germination).

Fusarium [2] = test: Industrial-scale spraying of barley with aqueous chlorine dioxide (20 ppm) during germination, Fusarium counts; type: cell-based; settings: for Log N Fusarium counts: sprayed with aqueous ClO2 (20 ppm) during germination, samples 11B, 12B
Description: Comparison tests were conducted with two batches of barley at the same industrial malting site of Example 5, to determine the effect of ClO2 upon Fusarium counts where the barley is sprayed with aqueous ClO2 (20 ppm) during germination. Both batches were treated with tap water during the steeping stage. Batches 11A and 12A were also sprayed with tap water during germination, whereas batches 11B and 12B were sprayed with aqueous ClO2 (20 ppm) during germination. Each batch of barley weighed approximately 56 metric tons when dry and absorbed approximately 40-50% water by weight during the steeping and germination steps. For example, the barley typically absorbed about 41-42% water during steeping. During germination water content in the barley further increased to about 45-46%. During germination, the steeped batch of barley was sprayed with about 8.8 m^3 aqueous chlorine dioxide (20 ppm) solution (i.e., about 0.15 m^3 aqueous chlorine dioxide solution per metric ton of dry grain).

Fusarium [3] = test: Treatment of barley artificially contaminated with Fusarium with chlorine dioxide solutions (test tube, plate count); type: cell-based
Description: The performance of chlorine dioxide was investigated to reduce initial Fusarium load on barley. Prior to treatment with chlorine dioxide, barley samples were artificially contaminated with cells of Fusarium by spraying and drying.
Methods. Chlorine dioxide solutions were generated using Diversey's ClearKlens Bi-Spore Set (Base VH26 and Activator VH 26). Fresh stock solutions were prepared following product use instructions. Concentrations of chlorine dioxide in stock and use solutions were determined with a Dr. Lange test-kit (LCK 310/343) and photometric DR 2800 device. Chlorine dioxide use solutions were prepared diluting the Bi-Spore stock solution with aid of CEN hard water diluent (300 mg/kg CaCO3). The neutralizing solution was based on sodium thiosulfate (5 g/L in ¼ strength Ringer solution). Experiments were carried out at ambient temperature and no soil on the basis of EN 1276. Chlorine dioxide use solutions for testing were determined to be 1 ppm and 10 ppm.
Test runs were conducted as follows. In a test tube, chlorine dioxide solution (10 ml) was added to barley (1 g) and the start time of the experiment was recorded. Barley and chlorine dioxide were mixed by vortexing for 10 seconds and then allowed to react for one hour. After treating the barley with chlorine dioxide solution for one hour, the solution was decanted. Shortly thereafter, a subsequent treatment for either 60 or 300 min with a fresh solution containing either 1 ppm ClO2 or 10 ppm ClO2 was performed. After completion of the second treatment, a portion of the mixture (1 mL) was pipetted into 9 ml of neutralizer and mixed. After 5 minutes reaction time, 1 mL of the neutralized solution was added to 9 mL Ringer diluent. A dilution series was prepared up to 1:10,000. From each dilution step, 1 mL (in duplicate) was plated on potato dextrose agar. Plates were incubated at 30° C. for 62 hours. Grown colonies on plates were counted and expressed at CFU per gram barley. A control experiment using Ringer solution instead of chlorine dioxide was performed following the same procedure.

Fusarium [4] = test: Fusarium counts on barley, chlorine dioxide in second steeping versus tap water blank (Example 3); type: cell-based
Description: (§1) Test protocol. Harvested barley from a high load Fusarium batch was provided by Czech Malt and Brew Institute. A starting probe (parallel) was taken to determine initial cell load on barley with Fusarium. Barley (1 g) was whirled in Ringer-solution (10 ml) to detach cells. After thorough whirling ten-fold dilutions steps in sterile Ringer-solution were prepared. 1 ml sample in parallel from dilution steps 10^−4, 10^−5 and 10^−6 were poured with sterile potato agar medium. Chlorine dioxide treated barley was prior to dilution series once washed with Ringer-solution to remove residual Chlorine dioxide. Plates were transferred into a temperature-controlled (30° C.) incubation box and grown for 3-5 days until colony formation was observed. Colonies were counted and calculated to CFU/g. Boxes with barley were placed into a steeping/germination box. The chamber was filled with town tap water for the first steeping and to remove dust and dirt. With help of Dulcotest DT1 photometer (Prominent), the free chlorine in tap water was determined to be 0.17 ppm. The first steeping was performed for 5 hours at about 14.5° C. During this time the water content in exposed barley increased up to 31.8%. After the first steeping residual water was drained. A second (parallel) barley sample was taken to determine the Fusarium load. The steeped barley was then exposed to air until next morning (approximately 16 hours), and a third (parallel) barley sample was taken to determine Fusarium load.
(§2) A comparison test with a batch of barley treated with chlorine dioxide in second steeping versus a control using tap water only was carried out following the procedure described in Example 2. The chlorine dioxide in the second steeping solution was determined as initial 11 ppm and dropped to 8 ppm at the end of steeping (4 hour in total, data not shown). The effect on reduction of Fusarium counts were determined.

Fusarium [5] = test: Fusarium counts on barley, chlorine dioxide in second steeping, pilot steeping chamber (Example 2); type: cell-based
[6] = Chlorine dioxide concentration in the steeping solution during steeping; type: physicochemical; settings: for ClO2 concentration in the steeping solution: Example 2, second steeping
Description: (§3) The second steeping was performed using an aqueous solution of chlorine dioxide. The aqueous solution was made of Diversey Bi-Spore as described in Example 1. The chlorine dioxide steeping solution was prepared from stock by diluting with town tap water. The chlorine dioxide concentration of the steeping solution was determined to be 12 ppm.
(§4) Four boxes with 0.5 kg barley each were placed into a plastic container, which then was filled with 11 L of above mentioned chlorine dioxide steeping solution. The plastic container was transferred into the steeping/germination chamber and left for another 4 hour steeping period. The chlorine dioxide concentration was periodically monitored using Dr. Lange test-kits (LCK 310/343) and DR 2800 device. (Parallel) Barley samples were taken to determine residual cell load of Fusarium after the chlorine dioxide steeping.
as §2

[7] = system: Fusarium mycotoxins (deoxynivalenol, zearalenon) and deoxynivalenol-3-glucoside; test: Mycotoxin content of barley by LC-MS/MS
Description: The barley was also analyzed for representative mycotoxin content as follows. The high-performance liquid chromatography with mass detection (LC-MS/MS) was used for the determination of the selected Fusarium mycotoxins (deoxynivalenol, zearalenon) and deoxynivalenol-3-glucoside in brewing raw materials. After extraction, the homogenized samples were filtered and purified on the SPE column or immunoaffinity column. Subsequently, they were concentrated using a vacuum evaporator, transferred to aqueous methanol and analyzed with the LC-MS/MS.

Fusarium [8] = test: Fusarium counts on barley, chlorine dioxide in second steeping, pilot steeping chamber (Example 2); type: cell-based; remark: listed apart in the source
Description: as §1, §3, §4
After second steeping with chlorine dioxide, the boxes were exposed to air in the closed chamber for another 20 hour period. The water level was determined to 38.1% and then adjusted to final 45.5% after a third steeping with tap water for a period of 2.5 hours. A final parallel barley sample was taken to determine residual cell load with Fusarium prior to germination. Treated barley then was further processed according to a quality parameter protocol of the Malting Institute.

[9] = 10 ppm + 1 ppm ClO2, contact time 60 min + 60 min
[10] = 10 ppm + 1 ppm ClO2, contact time 60 min + 300 min
[11] = 10 ppm + 10 ppm (2nd steep) ClO2, contact time 60 min + 60 min
[12] = 10 ppm + 10 ppm (2nd steep) ClO2, contact time 60 min + 300 min
[13] = after 2nd steeping with ClO2 (4 hours)
[14] = ClO2-treated batch, after third steeping with tap water
[15] = ClO2-treated batch, after third steeping with tap water, second sample
[16] = after second steeping with ClO2 (4 hours), 12 ppm
[17] = after second steeping with ClO2 (4 hours), 12 ppm, second sample
[18] = Bojos barley after steeping with chlorine dioxide
[19] = second steeping step with chlorine dioxide

[O][Cl+][O-] [ClO2, chlorine dioxide]
Fusarium counts compared to control batches steeped with tap water (Fusarium [1]): significantly lower
Fusarium counts on barley compared to control batch sprayed with tap water (Fusarium [2]; industrial scale, sprayed during germination, in words): significantly lower
Log N Fusarium counts (Fusarium [2]; Day 1): 5.9 and 5.8
Log N Fusarium counts (Fusarium [2]; Day 2): 5.2
Log N Fusarium counts (Fusarium [2]; Day 3): 5.2
Log N Fusarium counts (Fusarium [2]; Day 4): 4.3
Log N Fusarium counts (Fusarium [2]; Day 5): 4.1 and 4.0
CFU/g after treatment (Fusarium [3]; [9]): 3.3 × 10^6 CFU/g
R (log batch control − log batch ClO2), reduction in viability (Fusarium [3]; [9]): 1.06
CFU/g after treatment (Fusarium [3]; [10]): 1.3 × 10^7 CFU/g
R (log batch control − log batch ClO2), reduction in viability (Fusarium [3]; [10]): 0.47
CFU/g after treatment (Fusarium [3]; [11]): 1.1 × 10^4 CFU/g
R (log batch control − log batch ClO2), reduction in viability (Fusarium [3]; [11]): 3.58
CFU/g after treatment (Fusarium [3]; [12]): 5 × 10^3 CFU/g
R (log batch control − log batch ClO2), reduction in viability (Fusarium [3]; [12]): 3.88
Fusarium counts on barley compared to a control without chlorine dioxide (Fusarium [3]; Example 1, in words): clear reduction
% reduction vs. untreated control (Fusarium [4]; after 2nd aeration (20 hours)): 93.09%
Fusarium counts, treated with ClO2, mean value (CFU/g) (Fusarium [4]; after 2nd aeration (20 hours)): 4.41 × 10^3 CFU/g
Fusarium counts, treated with ClO2, sample 1 (CFU/g) (Fusarium [4]; after 2nd aeration (20 hours)): 4.69 × 10^3 CFU/g
Fusarium counts, treated with ClO2, sample 2 (CFU/g) (Fusarium [4]; after 2nd aeration (20 hours)): 4.13 × 10^3 CFU/g
log reduction vs. untreated control (Fusarium [4]; after 2nd aeration (20 hours)): 1.17
% reduction vs. untreated control (Fusarium [4]; [13]): 93.44%
Fusarium counts, treated with ClO2, mean value (CFU/g) (Fusarium [4]; [13]): 4.56 × 10^3 CFU/g
Fusarium counts, treated with ClO2, sample 1 (CFU/g) (Fusarium [4]; [13]): 4.37 × 10^3 CFU/g
Fusarium counts, treated with ClO2, sample 2 (CFU/g) (Fusarium [4]; [13]): 4.75 × 10^3 CFU/g
log reduction vs. untreated control (Fusarium [4]; [13]): 1.18
% reduction vs. untreated control (Fusarium [4]; after 3rd steeping): 92.59%
Fusarium counts, treated with ClO2, mean value (CFU/g) (Fusarium [4]; after 3rd steeping): 3.14 × 10^3 CFU/g
Fusarium counts, treated with ClO2, sample 1 (CFU/g) (Fusarium [4]; after 3rd steeping): 3.12 × 10^3 CFU/g
Fusarium counts, treated with ClO2, sample 2 (CFU/g) (Fusarium [4]; after 3rd steeping): 3.15 × 10^3 CFU/g
log reduction vs. untreated control (Fusarium [4]; after 3rd steeping): 1.13
Fusarium counts compared to the control steeped with tap water only (Fusarium [4]; chlorine dioxide in second steeping, in words): significantly lower
Fusarium counts, Mean value (CFU/grain) (Fusarium [5]; [14]): 1.98 × 10^4 CFU/grain
Fusarium counts, Sample 1 (CFU/grain) (Fusarium [5]; [14]): 1.90 × 10^4 CFU/grain
Fusarium counts, Sample 1 (CFU/grain) (Fusarium [5]; [15]): 2.06 × 10^4 CFU/grain
Fusarium counts, Mean value (CFU/grain) (Fusarium [5]; [16]): 3.69 × 10^3 CFU/grain
Fusarium counts, Sample 1 (CFU/grain) (Fusarium [5]; [16]): 3.74 × 10^3 CFU/grain
Fusarium counts, Sample 1 (CFU/grain) (Fusarium [5]; [17]): 3.64 × 10^3 CFU/grain
ClO2 concentration in the steeping solution ([6]; time 0 min): 12.2 mg/L
ClO2 concentration in the steeping solution ([6]; time 80 min): 11.8 mg/L
ClO2 concentration in the steeping solution ([6]; time 140 min): 7.4 mg/L
ClO2 concentration in the steeping solution ([6]; time 190 min): 9.5 mg/L
ClO2 concentration in the steeping solution ([6]; time 240 min): 6.4 mg/L
Chlorine dioxide in the second steeping solution, end of steeping ([6]; Example 3, end of steeping (4 hour in total)): 8 ppm
Chlorine dioxide in the second steeping solution, initial ([6]; Example 3, start of steeping): 11 ppm
DON concentration on barley [7, 18]: 450.4 µg/kg
DON_3_Glc concentration on barley [7, 18]: 751 µg/kg
ZON concentration on barley [7, 18]: 12.1 µg/kg
DON ([7]; Bojos barley steeped with chlorine dioxide, Table 7): 450.4 µg/kg
Mycotoxin concentration of DON and DON_3_Glc on barley compared to initial load of untreated barley or barley steeped with water only ([7]; in words): significantly lower
ZON level compared to tap water only ([7]; in words): significantly less
Level of ZON after steeping compared to initial load ([7]; in words, independently of whether water or chlorine dioxide was used): increased
Fusarium counts, Mean value (CFU/g) (Fusarium [8]; [14]): 2.47 × 10^5 CFU/g
Fusarium counts, Sample 1 (CFU/g) (Fusarium [8]; [14]): 2.47 × 10^5 CFU/g
Fusarium counts, Sample 1 (CFU/g) (Fusarium [8]; [15]): 2.47 × 10^5 CFU/g
Fusarium counts, Mean value (CFU/g) (Fusarium [8]; [16]): 5.16 × 10^4 CFU/g
Fusarium counts, Sample 1 (CFU/g) (Fusarium [8]; [16]): 5.23 × 10^4 CFU/g
Fusarium counts, Sample 1 (CFU/g) (Fusarium [8]; [17]): 5.09 × 10^4 CFU/g
Fusarium in malted barley produced from the treated batch (Fusarium [8]; malted barley, data not shown): free from Fusarium
Reduction of Fusarium numbers on barley (%) (Fusarium [8]; [19]): 94.15%
Reduction of Fusarium numbers on barley (log) (Fusarium [8]; [19]): 1.24 log
